Values joined by “and” are separate entries in the source; they are usually repeats but may differ in a detail not shown here. Equal entries are not always repeated. Where two headings read alike, the source gives them in different places.
Key:
BRD4 BD2 [1] = target: T1, BRD4 BD2 (Homo sapiens, UniProt O60885); test: DSF thermal shift assay; assay type: binding; parameters: purchased in-house (SGC Frankfurt recombinant bromodomain DSF panel)
Experimental: (§1) The effects of inhibitor binding on the apparent melting temperature of recombinant bromodomains were determined by DSF in a 96-well plate (Starlab) at a protein concentration of 2 μM with 10 μΜ compound in buffer containing 25 mM HEPES, pH 7.5, 150 mM NaCl, and 0.5 mM TCEP. […] Protein unfolding profiles were recorded using an MX3005P real-time qPCR instrument (Agilent; excitation/emission filters = 492/610 nm) while increasing the temperature from 25 to 95 °C at a heating rate of 3 °C/min. Tm values were calculated after fitting the fluorescence curves to the Boltzmann equation. Differences in melting temperature upon compound binding are given as ΔTm = Tm (protein with inhibitor) – Tm (protein with DMSO control). Measurements were performed in triplicates.

BRD4 BD1 [2] = target: T2, BRD4 BD1 (Homo sapiens, UniProt O60885); test: DSF thermal shift assay; assay type: binding; parameters: purchased in-house (SGC Frankfurt recombinant bromodomain DSF panel)
Experimental: as §1

HDAC1 = HDAC1 (Homo sapiens, UniProt Q13547); test: NanoBRET target engagement assay (HEK293T); assay type: cell-based; parameters: BRD4 bromodomains and full-length HDACs were obtained as plasmids cloned in-frame with a terminal NanoLuc fusion; host or cells: HEK293T
Experimental: (§2) The assay was performed as described previously.[17],[59] In brief, BRD4 bromodomains and full-length HDACs were obtained as plasmids cloned in-frame with a terminal NanoLuc fusion (Promega). Plasmids were transfected into HEK293T cells using FuGENE HD (Promega, E2312), and proteins were allowed to express for 20 h. […] The corresponding protein-transfected cells were added and reseeded at a density of 2 × 10^5 cells/mL after trypsinization and resuspended in Opti-MEM without phenol red (Life Technologies). The system was allowed to equilibrate for 2 h at 37 °C/5% CO2 prior to BRET measurements. […] For lysed-mode NanoBRET experiments, digitonin (Promega, #G9441) was added as per the manufacturer’s instructions to a final concentration of […].

HDAC2 = HDAC2 (Homo sapiens, UniProt Q92769); test: NanoBRET target engagement assay (HEK293T); assay type: cell-based; parameters: BRD4 bromodomains and full-length HDACs were obtained as plasmids cloned in-frame with a terminal NanoLuc fusion; host or cells: HEK293T; details: intact cells
Experimental: as §2

BRD4 BD2 [3] = target: T1, BRD4 BD2; test: NanoBRET target engagement assay (HEK293T); assay type: cell-based; parameters: BRD4 bromodomains and full-length HDACs were obtained as plasmids cloned in-frame with a terminal NanoLuc fusion; host or cells: HEK293T
Experimental: (§3) The assay was performed as described previously.[17],[59] In brief, BRD4 bromodomains and full-length HDACs were obtained as plasmids cloned in-frame with a terminal NanoLuc fusion (Promega). Plasmids were transfected into HEK293T cells using FuGENE HD (Promega, E2312), and proteins were allowed to express for 20 h. Serially diluted inhibitor and the corresponding NanoBRET Tracer (Promega) at a concentration determined previously as the tracer KD, app were pipetted into white 384-well plates (Greiner #781207) for BRD assays or white 96-well plates (Corning #3600) for HDAC using an Echo acoustic dispenser (Labcyte). The corresponding protein-transfected cells were added and reseeded at a density of 2 × 10^5 cells/mL after trypsinization and resuspended in Opti-MEM without phenol red (Life Technologies). The system was allowed to equilibrate for 2 h at 37 °C/5% CO2 prior to BRET measurements. To measure BRET, NanoBRET NanoGlo substrate + Extracellular NanoLuc Inhibitor (Promega, N2540) was added as per the manufacturer’s protocol, and filtered luminescence was measured on a PHERAstar plate reader (BMG Labtech) equipped with a luminescence filter pair (450 nm BP filter (donor) and 610 nm LP filter (acceptor)). For lysed-mode NanoBRET experiments, digitonin (Promega, #G9441) was added as per the manufacturer’s instructions to a final concentration of […].

BRD4 BD1 [4] = target: T2, BRD4 BD1; test: NanoBRET target engagement assay (HEK293T); assay type: cell-based; parameters: BRD4 bromodomains and full-length HDACs were obtained as plasmids cloned in-frame with a terminal NanoLuc fusion; host or cells: HEK293T
Experimental: as §3

BRD4 bromodomains = BRD4 bromodomains (Homo sapiens, UniProt O60885); test: NanoBRET target engagement assay, both bromodomains; assay type: cell-based; details: BD1 and BD2, intact cells; read-out: NanoBRET EC50 BRD4 bromodomains
Experimental: as §3

HDAC3 = HDAC3 (Homo sapiens, UniProt O15379); test: NanoBRET target engagement assay (HEK293T); assay type: cell-based; parameters: BRD4 bromodomains and full-length HDACs were obtained as plasmids cloned in-frame with a terminal NanoLuc fusion; host or cells: HEK293T; details: intact cells
Experimental: as §2

PaTu8988T cells = test: CellTiter-Glo cell viability assay; assay type: cell-based; details: Homo sapiens, PaTu 8988t, 72 h; treatment for 3 days
Experimental: (§4) PDAC cell line PaTu8988T was obtained from ATCC and cultured in Dulbecco’s modified Eagle’s medium (DMEM) containing 10% FBS, 25 mM glucose, […], 1 mM sodium pyruvate, and 1% penicillin–streptomycin. Nut midline carcinoma cell line HCC2429 was kindly provided by Lead Discovery Center GmbH (Dortmund, Germany) and was cultured in RPMI1640 medium containing 10% FBS, 2 mM L-glutamine, and 1% penicillin–streptomycin. Cell line PaTu8988T was authenticated using the Multiplex human Cell line Authentication Test (MCA) by Multiplexion GmbH, and cell line HCC2429 was authenticated using short tandem repeat (STR) profiling.
(§5) The assays were performed using Promega’s CellTiter-Glo Luminescent Cell Viability Assay kit (Cat. #G7571). First, compounds dissolved in DMSO were printed in 96-well plates (Corning) by using a Tecan D300e digital dispenser. Then, cells were seeded into the compound-printed plates using a Thermo Multidrop reagent dispenser. 72 h later, one volume of diluted CellTiter-Glo reagent (1:4 dilution with PBS) was added to individual wells by using the Thermo Multidrop reagent dispenser again. Plates were shaken for 2 min and incubated for 10 min in the dark. Luminescent signals were read by using a Tecan Spark Multimode Microplate Reader. The values were normalized to the DMSO control wells and presented as a percentage of cell viability. Dose–response curves were drawn with GraphPad Prism 8.

HCC2429 cells = test: CellTiter-Glo cell viability assay; assay type: cell-based; details: Homo sapiens, HCC2429, 72 h; treatment for 3 days
Experimental: as §4, §5

[5] = 10 μM compound, 2 μM protein, read-out: DSF ΔTm BRD4 BD2
[6] = 10 μM compound, 2 μM protein, read-out: DSF ΔTm BRD4 BD1

HDAC1, sequence (Q13547 whole entry, the tested form may be a part): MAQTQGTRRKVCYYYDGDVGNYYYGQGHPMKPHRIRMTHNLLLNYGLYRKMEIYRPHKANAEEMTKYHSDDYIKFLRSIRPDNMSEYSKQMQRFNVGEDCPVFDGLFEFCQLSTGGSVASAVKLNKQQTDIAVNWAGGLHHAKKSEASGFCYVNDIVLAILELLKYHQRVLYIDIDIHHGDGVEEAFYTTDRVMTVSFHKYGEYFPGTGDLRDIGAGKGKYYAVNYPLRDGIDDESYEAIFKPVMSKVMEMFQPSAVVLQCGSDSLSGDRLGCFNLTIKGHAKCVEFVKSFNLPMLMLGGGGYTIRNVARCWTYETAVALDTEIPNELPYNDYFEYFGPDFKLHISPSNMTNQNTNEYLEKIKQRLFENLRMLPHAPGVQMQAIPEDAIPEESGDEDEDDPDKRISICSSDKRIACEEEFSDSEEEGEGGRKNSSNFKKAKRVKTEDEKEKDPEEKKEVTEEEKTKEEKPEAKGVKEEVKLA
HDAC2, sequence (Q92769 whole entry, the tested form may be a part): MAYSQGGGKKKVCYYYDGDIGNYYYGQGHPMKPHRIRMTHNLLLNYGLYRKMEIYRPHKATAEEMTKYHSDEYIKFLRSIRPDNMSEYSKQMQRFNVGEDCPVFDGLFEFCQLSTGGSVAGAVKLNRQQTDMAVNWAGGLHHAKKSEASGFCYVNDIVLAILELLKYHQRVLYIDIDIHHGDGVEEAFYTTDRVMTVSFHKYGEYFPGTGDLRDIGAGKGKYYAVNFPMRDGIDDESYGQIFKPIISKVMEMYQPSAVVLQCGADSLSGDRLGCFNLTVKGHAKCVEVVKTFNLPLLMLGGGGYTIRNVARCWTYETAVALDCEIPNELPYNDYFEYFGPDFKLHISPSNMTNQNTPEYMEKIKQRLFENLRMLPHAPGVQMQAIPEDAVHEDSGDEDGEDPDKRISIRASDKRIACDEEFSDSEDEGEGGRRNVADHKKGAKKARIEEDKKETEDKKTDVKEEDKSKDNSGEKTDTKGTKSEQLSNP
HDAC3, sequence (O15379 whole entry, the tested form may be a part): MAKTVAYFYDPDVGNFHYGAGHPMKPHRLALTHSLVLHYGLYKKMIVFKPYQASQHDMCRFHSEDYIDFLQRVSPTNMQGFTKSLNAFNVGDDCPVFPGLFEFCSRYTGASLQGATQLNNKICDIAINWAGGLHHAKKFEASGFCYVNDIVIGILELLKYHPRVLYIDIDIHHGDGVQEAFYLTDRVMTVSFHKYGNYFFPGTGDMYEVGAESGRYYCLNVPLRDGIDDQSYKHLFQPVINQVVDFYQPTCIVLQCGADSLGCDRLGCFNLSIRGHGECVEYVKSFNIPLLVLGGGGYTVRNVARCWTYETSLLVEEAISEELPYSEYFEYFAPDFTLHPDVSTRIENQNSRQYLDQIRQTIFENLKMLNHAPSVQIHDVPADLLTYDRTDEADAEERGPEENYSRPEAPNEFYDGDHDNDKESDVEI

| Structure (SMILES) | ΔTm at 10 µM (BRD4 BD2 [1]; [5]) [°C] | ΔTm at 10 µM (BRD4 BD1 [2]; [6]) [°C] | EC50 (HDAC1; intact cells) | EC50 (HDAC2) | EC50 (BRD4 BD2 [3]; intact cells) [nM] | EC50 (BRD4 BD1 [4]; intact cells) [nM] | EC50 (HDAC1; lysed cells (digitonin)) [nM] | EC50 (BRD4 bromodomains) [nM] | DSF ΔTm BRD4 BD2 (BRD4 BD2 [1]; 10 μM compound, 2 μM protein) [K] | ΔTm at 10 µM (BRD4 BD2 [1]; read-out: DSF ΔTm BRD4 BD2, 10 μM compound, 2 μM protein) [°C] | DSF ΔTm BRD4 BD1 (BRD4 BD1 [2]; 10 μM compound, 2 μM protein) [K] | ΔTm at 10 µM (BRD4 BD1 [2]; read-out: DSF ΔTm BRD4 BD1, 10 μM compound, 2 μM protein) [°C] | EC50 (HDAC3) [nM] | IC50 (PaTu8988T cells) [nM] | IC50 (HCC2429 cells) [nM] | EC50 (BRD4 BD2 [3]; lysed cells (digitonin)) [nM] | EC50 (BRD4 BD1 [4]; lysed cells (digitonin)) [nM] |
| --- | --- | --- | --- | --- | --- | --- | --- | --- | --- | --- | --- | --- | --- | --- | --- | --- | --- |
| Cn1cc(C(=O)Nc2ccc(C(=O)Nc3ccccc3N)cc2)c2cc[nH]c2c1=O [NB480] | 1.9 ± 0.3 | 1.9 ± 0.2 | 2300 ± 600 nM | 3700 ± 2400 nM | 2900 ± 200 | 2600 ± 100 |  |  |  |  |  |  |  |  |  |  |  |
| Cn1cc(-c2ccc(C(=O)Nc3ccccc3N)cc2N)c2cc[nH]c2c1=O [NB469] | 1.7 ± 0.3 | 0.9 ± 0.2 | 34400 ± 5800 nM | 39700 ± 9000 nM | 2100 ± 400 | 3700 ± 500 | 32200 ± 7100 |  |  |  |  |  |  |  |  |  |  |
| Cn1cc(-c2ccc3cc(C(=O)Nc4ccccc4N)ccc3n2)c2cc[nH]c2c1=O [NB437] |  |  | 23200 nM and 23000 nM | 24800 nM and 25000 nM | 200 ± 30 | 180 ± 30 | 11000 ± 1800 | 100 to 400 | 4.8 ± 0.2 | 4 to 5 | 4.0 ± 0.2 | 4 to 5 |  |  |  |  |  |
| Cn1cc(-c2ccc(C(=O)Nc3cc(-c4cccs4)ccc3N)nc2)c2cc[nH]c2c1=O [NB514] |  |  | 140 ± 50 nM | 58 nM and 60 nM | 180 ± 40 | 290 ± 50 | 22 ± 8 |  |  |  |  |  | 11400 ± 6900 | 4100 ± 700 | 550 ± 60 |  |  |
| CC(=O)Nc1ccc(C(=O)Nc2ccccc2N)cc1 [CI-994, reference compound] |  |  |  |  |  |  |  |  |  |  |  |  |  | 13100 ± 2400 | 1800 ± 200 | > 50000 | > 50000 |
| Cc1cc(/N=N/c2ccc(C(=O)Nc3ccccc3N)cc2)c2cc[nH]c2c1O [NB390] | 5.2 ± 0.2 | 7.5 ± 0.2 | 2100 ± 700 nM | 1300 ± 900 nM | 50 ± 10 | 190 ± 30 |  |  |  |  |  |  |  |  |  |  |  |

— paper PMC10878397, “Development of Potent Dual BET/HDAC Inhibitors via Pharmacophore Merging and Structure-Guided Optimization” (ACS Chemical Biology, 2024)
